Data as given in patent US20090306093A1, “METHOD FOR TREATING PATIENT HAVING BENIGN PROSTATE HYPERPLASIA” (KAOHSIUNG MEDICAL UNIVERSITY, priority 2008, published 2009).

Experiments:
[1] = tested on: PZ-HPV-7 human prostatic epithelial cells; assay: Cell proliferation, MTT assay; format: cell-based
Method: PZ-HPV-7, a human prostate epithelial cell line derived from normal peripheral zone tissue and transfected with human papillomavirus type 18, was obtained from the American Type Culture Collection (ATCC). Cells were grown in K-SFM medium supplemented with 100 U/mL penicillin, […], streptomycin 5 ng/ml, EGF human recombinant and 50 µg/mL BPE in 75-cm^2 flasks at 37° C. in a humidified atmosphere of […]. The culture medium was renewed every 2 days and cells were sub-cultured every 6 days. For the experiments, cells were seeded in 24-well plates at a density of 1×10^4 cells/well. After 24 hours and 48 hours, when cells were 80% confluent, KMUP-1 (1-100 μM) was added to the 24-well plates. Cell proliferation was measured using MTT assay (3-[4,5-dimethylthiazol-2-yl]-2,5-diphenyl-tetrazolium bromide, Sigma). The trypan blue […] exclusion assay was performed to determine the proportion of living and dead cells in 24 hours and 48 hours after treatment. After 24 hours and 48 hours of treatment with KMUP-1 (1-100 μM), attached cells were collected by trypsinization. Cells were counted in a hemocytometer using equal volume of cell suspension and trypan blue solution (0.2% in PBS).

[2] = tested on: cGMP; assay: Determination of cGMP in rat isolated prostate (radioimmunoassay); details: for cGMP levels: 1 hour
Method: Isolated prostate strips from Wistar rats were prepared to determine prostate levels of cGMP and cAMP. Briefly, prostate strips were respectively incubated with KMUP-1 (10-100 μM), sildenafil (100 μM), and zaprinast (100 μM) in 10 mL Tyrode solution aerated with 95% O2 and 5% CO2 for 1 hour. To examine the possible mechanisms of action of KMUP-1, the rat prostate was pretreated with ODQ (10 μM, sGC inhibitor) and SQ22536 (9-(tetrahydro-2-furanyl)-9H-purin-6-amine, 10 μM, adenylyl cyclase inhibitor) for 30 minutes before KMUP-1 was added. After the incubation, the prostate tissues were extracted with 1 mL of 0.1 N HCl. The extracts were then lyophilized for a further measurement of cyclic GMP or cyclic AMP of each sample, using commercially available radioimmunoassay kits (Amersham Pharmacia Biotech, Buckinghamshire, England).

[3] = tested on: a1-adrenoceptor; assay: Antagonism of phenylephrine-induced contraction in isolated rat prostate strips; details: against phenylephrine, KMUP-1 0.01-1 μM
Method: Smooth muscle contractility of isolated Wistar rat prostate was used to evaluate the possible involvement of a1-adrenoceptor antagonism by KMUP-1. KMUP-1 (0.01-1 μM) or vehicle was added to organ bath, containing the Tyrode solution, for 30 minutes after a concentration-response curve to phenylephrine (0.001-100 μM) was obtained.
Concentration-response curves of phenylephrine were dose-dependently parallel-shifted to the right by KMUP-1.

[4] = tested on: sGCa1; assay: Western blot of sGCa1 expression in rat prostate
Method: Prostate strips were incubated with KMUP-1 (10-100 μM), sildenafil (100 μM) and zaprinast (100 μM) in 10 mL Tyrode solution aerated with 95% O2 and 5% CO2 for 1 hour. To examine the possible mechanisms of KMUP-1 action, the rat prostate were pretreated with ODQ (10 μM), SQ22536 (10 μM) and RP-8pCPT-cGMPs (10 μM) for 30 minutes prior to the addition of KMUP-1 (100 μM).
In order to examine the expression of Rho kinase in prostate, the prostate strips were pre-incubated with phenylephrine (10 μM) for 30 minutes. After a pre-treatment of phenylephrine, KMUP-1 (10-100 μM) and Y-27632 (10 μM) were further incubated for 30 minutes. After the incubation time, the prostate were extracted with protein extraction reagent (Pierce Biotechnology, Inc., Rockford, Ill., USA.). The PZ-HPV-7 cells were incubated with and without KMUP-1 (0.1-10 μM) at 30 minutes, 8 and 24 hours. They were then washed rapidly with ice-cold PBS, incubated with protein extraction reagent, and scraped from the plates. The prostate tissues and cells were sonicated three times for 10 second each time and centrifuged at 13,000 rpm at 4° C. for 30 minutes. The protein concentrations of supernatants were determined, using bovine serum albumin as the standard. Tissue and cell extract protein were then boiled at a ratio of 4:1 with sample buffer (100 mM Tris, pH 6.8, 20% glycerol, 4% SDS, and 0.2% bromphenol blue). 40-60 μg protein was used in this experiment. Electrophoresis was performed using 10 or 12% SDS-polyacrylamide gel electrophoresis and then transferred to nitrocellulose membranes (Millipore Corporation, Billerica, Mass.). The membrane was blocked with Tris-buffered saline (20 mM Tris and 137 mM NaCl, pH 7.6) containing 0.1% Tween 20 (TTBS) and 5% non-fat milk at room temperature for 1 hour, washed with TTBS, and then incubated overnight at 4° C. in the appropriate primary antibody of PKG (Santa Cruz, 1:200), sGCa1 (Santa Cruz, 1:200), PKA (Abcam, 1:1000), ROCK2 (Upstate, 1:1000), and PDE5A (BD Biosciences, 1:1000), p21 (Upstate, 1:1000). The membranes were washed in TTBS before being incubated with horseradish peroxidase-conjugated antibody against mouse, goat, or rabbit IgG (Santa Cruz, 1:1000) for 1 hour. The membrane was then washed in TTBS and developed with the enhanced chemiluminescence (ECL) for the detection of the specific antigen. The intensity of the bands was measured by densitometry.

For `Cn1c(=O)c2c(ncn2CCN2CCN(c3ccccc3Cl)CC2)n(C)c1=O` [KMUP-1, 7-[2-[4-(2-Chlorobenzene)piperazinyl]ethyl]-1,3-dimethyl xanthine], the cell growth ([1]; 1 μM, 24 hours) was 82.00±3.03 % of control, the cell growth ([1]; 1 μM, 48 hours) was 70.00±2.23 % of control and the cell growth ([1]; 10 μM, 24 hours) was 80.03±1.52 % of control. For the same molecule, the cell growth ([1]; 10 μM, 48 hours) was 56.00±2.72 % of control, the cell growth ([1]; 100 μM, 24 hours) was 79.00±1.35 % of control and the cell growth ([1]; 100 μM, 48 hours) was 47.00±1.8 % of control. For the same molecule, the cGMP levels ([2]; 10 μM) was 3.50±0.58 pmol mg^−1 protein, the cGMP levels ([2]; 100 μM) was 7.50±0.79 pmol mg^−1 protein and the “accumulation of cGMP” value ([2]; KMUP-1 100 μM in the presence of ODQ 10 μM) was 2.54±0.73 pmol mg^−1 protein. The “apparent pA2” value [3] was 7.82±0.33, the “expression of sGCa1” value ([4]; KMUP-1 100 μM after pretreatment of ODQ 10 μM for 30 minutes) was “significantly reduce” and the “expression of sGCa1” value ([4]; KMUP-1 10-100 μM, sildenafil, zaprinast 100 μM, 1 hour) was “most potently induces”.
